Test: Particle size distribution by Malvern Mastersizer S (volume basis)
Type: physicochemical
Conditions: first analysis after formation, diluted with water
Procedure: For the examples containing a substantial fraction of nanoparticles <100 nm in diameter, photon correlation spectroscopy was performed on a Brookhaven with an ALV5000 multiple tau correlator to determine the average particle size using a second order cumulant fit. In accordance with standard practice, the viscosity and index of refraction of the solvent at a volume percentage the same as after mixing were input as properties of the fluid. A Malvern Mastersizer S version 2.18 was also used to determine the particle size distribution based on volume, or similar to a weight. Likewise, the average particle size was based on volume or mass, D[4,3]. The data analysis used a polydisperse model and the Standard-Wet (3OHD) presentation that assumes the particle is suspended in water. Some samples were diluted with water for analysis. For all processing conditions, the water used was purified by RO and filtered and the temperature is given within 2° C. The polymer blocks were nominal molecular weight with the nomenclature (1000) describing a block nominally of 1000 g/mole. The blocks could have contained minor impurities (<10% by weight and typically <5% by weight) due to the method of synthesis.

CC1=C(/C=C/C(C)=C/C=C/C(C)=C/C=C/C=C(C)/C=C/C=C(C)/C=C/C2=C(C)CCCC2(C)C)C(C)(C)CCC1 [β-carotene]
Mean size D[4,3]: 120 μm | Yield of nanoparticles below 1060 nm: 9%

Reference: US9956179B2, “Process and apparatuses for preparing nanoparticle compositions with amphiphilic copolymers and their use” (The Trustees of Princeton University, priority 2001, dated 2018)
